Drawing on patent US20170210751A1, “PRMT5 INHIBITORS AND USES THEREOF” (Epizyme, Inc., priority 2014, published 2017), this text covers IC50 and EC50 for three molecules.

One test has as its target T1, PRMT5/MEP50 (Homo sapiens, UniProt O14744).
T1 construct: Flag-PRMT5; made in house; host or cells: Spodoptera frugiperda (SF9) insect cells, baculovirus (pDEST8)
The test can be described thus: PRMT5 Biochemical Assay (PRMT5/MEP50 enzyme assay on peptide substrate, 3H-SAM Flashplate). The note with it: PRMT5/MEP50 4 nM, 3H-SAM 75 nM, peptide 40 nM, 30 min preincubation at 25 degrees Celsius. The gist of the method: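 FLAG-PRMT5/His-MEP50 from Sf9 cells (4 nM) preincubated 30 min at 25 °C with compounds, then reacted with 75 nM 3H-SAM and 40 nM biotinylated histone H4 1-15 peptide in Bicine pH 7.6, 1% DMSO. Stopped with 600 uM cold SAM; streptavidin Flashplate capture, scintillation counts; % inhibition fitted to 3- or 4-parameter curve.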

The test system of a further test is Z-138 cell line. The test can be described thus: Z-138 Proliferation Assay (Cell Titer Glo). The format is cell-based. The conditions noted are these: Homo sapiens, 120 h; Z-138 cells, 5 days incubation, ATP (Cell Titer Glo). The gist of the method:
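Z-138 cells in RPMI with 10% FBS exposed 5 days at 37 °C to nine-point 3-fold dilutions, top 20 μM final, 0.2% DMSO, triplicate. ATP-based CellTiter-Glo luminescence; IC50 from 4-parameter fit of normalized curves.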
In general terms: Cellular ATP, detected with luciferase, serves as a proxy for viable cell number.

Broadly, the IC50 is the concentration that inhibits the measured activity by half. For orientation: EC50 means the concentration at which the effect is half-maximal. Lower therefore signals an effect from little substance.

T1 sequence (O14744 with tags, fused parts or gaps): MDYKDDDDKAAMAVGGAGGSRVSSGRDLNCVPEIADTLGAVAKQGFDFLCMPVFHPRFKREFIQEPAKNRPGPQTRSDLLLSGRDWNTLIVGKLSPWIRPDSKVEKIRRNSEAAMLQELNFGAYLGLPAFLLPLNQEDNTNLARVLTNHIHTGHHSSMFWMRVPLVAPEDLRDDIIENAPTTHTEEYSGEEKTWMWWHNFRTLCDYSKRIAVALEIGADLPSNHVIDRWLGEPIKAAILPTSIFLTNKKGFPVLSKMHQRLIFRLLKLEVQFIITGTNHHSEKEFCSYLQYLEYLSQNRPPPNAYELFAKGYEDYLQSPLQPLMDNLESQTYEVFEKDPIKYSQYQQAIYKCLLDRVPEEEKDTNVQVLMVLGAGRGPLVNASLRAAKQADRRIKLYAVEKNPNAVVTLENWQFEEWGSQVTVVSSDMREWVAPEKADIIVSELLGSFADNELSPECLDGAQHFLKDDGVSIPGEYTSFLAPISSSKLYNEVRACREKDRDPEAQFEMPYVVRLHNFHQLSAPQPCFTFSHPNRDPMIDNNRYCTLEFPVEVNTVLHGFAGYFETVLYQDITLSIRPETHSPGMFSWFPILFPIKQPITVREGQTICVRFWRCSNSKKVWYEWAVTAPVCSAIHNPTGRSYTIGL
T1 sequence (Q9BQA1 with tags, fused parts or gaps partner limits assumed): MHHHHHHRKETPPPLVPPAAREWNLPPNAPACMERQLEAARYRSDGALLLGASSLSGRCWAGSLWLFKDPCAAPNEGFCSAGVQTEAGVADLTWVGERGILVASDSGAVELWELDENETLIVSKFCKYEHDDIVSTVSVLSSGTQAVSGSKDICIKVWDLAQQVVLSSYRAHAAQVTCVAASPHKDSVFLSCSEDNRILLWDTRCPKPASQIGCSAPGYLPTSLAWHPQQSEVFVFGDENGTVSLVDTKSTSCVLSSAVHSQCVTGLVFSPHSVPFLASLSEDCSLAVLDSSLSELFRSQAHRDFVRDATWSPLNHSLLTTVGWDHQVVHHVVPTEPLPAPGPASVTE

Turning to `O=C(COc1cccc2cccnc12)NCC(O)CN1CCc2ccsc2C1` (stereo not drawn) [Compound 1-5, N-(2-hydroxy-3-{4H,5H,6H,7H-thieno[2,3-c]pyridin-6-yl}propyl)-2-(quinolin-8-yloxy)acetamide], at PRMT5/MEP50, the IC50 was below 0.1 µM. In the test with Z-138 cell line, this molecule returned an EC50 above 5 µM.
In the case of `CC(=O)N1CC(Nc2cc(C(=O)NC[C@H](O)CN3CCc4c(cnn4C)C3)ncn2)C1` [Compound 3-29], on PRMT5/MEP50, the IC50 was above 10 µM. This molecule showed an EC50 in the test with Z-138 cell line above 5 µM.
Taken in the same sequence, the figures for `CC(=O)N1CCC(Nc2cc(C(=O)NC[C@H](O)CN3CCc4ncn(C)c4C3)ncn2)CC1` [Compound 3-30, (S)-6-((1-acetylpiperidin-4-yl)amino)-N-(2-hydroxy-3-(3-methyl-6,7-dihydro-3H-imidazo[4,5-c]pyridin-5(4H)-yl)propyl)pyrimidine-4-carboxamide] were above 10 µM and above 5 µM.
